We go through one molecule from patent publication US20230159989A1, “MULTIPLEXED FLUORESCENCE IN SITU HYBRIDIZATION METHOD CAPABLE OF RAPID DETECTION OF BILLIONS OF TARGETS” (Kanvas Biosciences, Inc., priority 2021, published 2023).

The assay deals with carbapenem-resistant K. pneumoniae. The assay is described as follows: HiPR-FISH chip antimicrobial susceptibility / MIC by growth imaging at several meropenem concentrations. It counts as cell-based. The settings on record: Klebsiella pneumoniae, several hours growth on a HiPR-FISH chip, in agreement with Clinical and Laboratory Standards Institute criteria, read-out: meropenem concentration beyond which the strain still grows (* denotes MIC).

Structures are written as SMILES.

Turning to `C[C@@H](O)[C@H]1C(=O)N2C(C(=O)O)=C(S[C@@H]3CN[C@H](C(=O)N(C)C)C3)[C@H](C)[C@H]12` [meropenem], the MIC is over 2 µg/mL.
